Assay results taken from ChEMBL document CHEMBL1135109, “Discovery and initial SAR of imidazoquinoxalines as inhibitors of the Src-family kinase p56(Lck)” (Bioorg Med Chem Lett, 2002).

Each compound was assayed against Tyrosine-protein kinase Lck (Homo sapiens, UniProt P06239).
Tyrosine-protein kinase Lck, sequence (P06239 whole entry): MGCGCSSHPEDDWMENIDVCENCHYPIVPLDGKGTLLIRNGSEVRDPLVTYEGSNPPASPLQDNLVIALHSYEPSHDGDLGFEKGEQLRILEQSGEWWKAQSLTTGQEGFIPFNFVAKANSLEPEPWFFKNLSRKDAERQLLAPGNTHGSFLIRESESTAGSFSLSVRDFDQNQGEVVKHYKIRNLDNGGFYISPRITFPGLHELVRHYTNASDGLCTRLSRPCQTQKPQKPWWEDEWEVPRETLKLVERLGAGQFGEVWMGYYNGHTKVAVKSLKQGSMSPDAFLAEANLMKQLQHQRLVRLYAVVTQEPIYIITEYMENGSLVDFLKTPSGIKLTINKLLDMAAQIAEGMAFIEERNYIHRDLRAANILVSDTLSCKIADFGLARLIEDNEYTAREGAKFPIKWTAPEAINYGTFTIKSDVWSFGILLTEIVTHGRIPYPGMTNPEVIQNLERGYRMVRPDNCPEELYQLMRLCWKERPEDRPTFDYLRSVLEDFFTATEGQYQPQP
Description: Inhibitory activity against recombinant p56 Lck tyrosine kinase expressed as a His-tagged protein in insect cells using a baculovirus expression system
Work on `Cc1cc(C)c(Nc2nc3ccccc3n3cncc23)c(C)c1` yielded an IC50 of 40 nM. Compound `COc1ccc2c(nc(Nc3c(C)cccc3Cl)c3cnc(CO)n32)c1OC` has an IC50 of 6.2 nM. With `Cc1ncc2c(Nc3ccccc3Br)nc3ccccc3n12` the IC50 was 180 nM. `Fc1cccc(F)c1Nc1nc2ccccc2n2cncc12` gave an IC50 of 360 nM. Work on `Cc1ncn2c1c(Nc1ccccc1Cl)nc1ccccc12` yielded an IC50 of 30 nM. Work on `Cc1ccccc1C(=O)Nc1nc2ccccc2n2cncc12` yielded an IC50 greater than 12500 nM. With `O=C(Nc1nc2ccccc2n2cncc12)c1ccccc1Br` the IC50 was 60 nM. In the case of `Clc1ccccc1Nc1nc2ccccc2n2cncc12`, the IC50 is reported as 60 nM. In the case of `COc1ccc2c(nc(Nc3c(C)cccc3Cl)c3cnc(C(C)O)n32)c1OC` (stereo not drawn), the IC50 is reported as 53 nM. `Cc1cccc(Cl)c1Nc1nc2ccccc2n2cncc12` showed an IC50 of 9 nM. `c1ccc2c(c1)nc(Nc1ccncc1)c1cncn12` was tested, and the IC50 was greater than 12500 nM. Work on `Brc1cccc(Br)c1Nc1nc2ccccc2n2cncc12` yielded an IC50 of 50 nM. `Cc1ccc(Nc2nc3ccccc3n3cncc23)c(Cl)c1` was tested, and the IC50 was 240 nM. `Brc1ccccc1Nc1nc2ccccc2n2ccnc12` was tested, and the IC50 was greater than 50000 nM. `c1ccc(CNc2nc3ccccc3n3cncc23)cc1` gave an IC50 greater than 12500 nM. Compound `c1ccc2c(c1)nc(NC1CC1)c1cncn12` has an IC50 of 3170 nM. With `Cc1cccc(C)c1Nc1nc2ccccc2n2cncc12` the IC50 was 16 nM. `Brc1ccccc1Oc1nc2ccccc2n2cncc12` was tested, and the IC50 was 3700 nM. With `COc1ccc2c(nc(Nc3c(C)cccc3Cl)c3cnc(C=O)n32)c1OC` the IC50 was 10 nM. For `CCc1cccc(CC)c1Nc1nc2ccccc2n2cncc12`, the IC50 was 1690 nM. In the case of `COc1ccc2c(nc(Nc3c(C)cccc3Cl)c3cnc(C(O)C(C)C)n32)c1OC` (stereo not drawn), the IC50 is reported as 238 nM. With `Fc1cccc(Nc2nc3ccccc3n3cncc23)c1` the IC50 was 1330 nM. Work on `CCNC(=O)c1ncc2c(Nc3c(C)cccc3Cl)nc3c(OC)c(OC)ccc3n12` yielded an IC50 of 665 nM. Work on `Cc1cc(C)c(Nc2nc3ccccc3n3cncc23)c(Cl)c1` yielded an IC50 of 30 nM. In the case of `COc1ccc2c(nc(Nc3c(C)cccc3Cl)c3cnc(/C=N/O)n32)c1OC`, the IC50 is reported as 4.3 nM. For `COc1ccc2c(nc(Nc3c(C)cccc3Cl)c3cncn32)c1OC`, the IC50 was 2 nM. `Clc1cccc(Cl)c1Nc1nc2ccccc2n2cncc12` showed an IC50 of 9 nM. `CCCNc1nc2ccccc2n2cncc12` gave an IC50 of 2680 nM. `c1cncc(Nc2nc3ccccc3n3cncc23)c1` showed an IC50 of 820 nM. `CN(c1ccccc1Cl)c1nc2ccccc2n2cncc12` gave an IC50 greater than 12500 nM. `Brc1ccc(Nc2nc3ccccc3n3cncc23)cc1` was tested, and the IC50 was greater than 12500 nM. `COc1ccccc1Nc1nc2ccccc2n2cncc12` was tested, and the IC50 was 5520 nM. Compound `COc1ccc2c(nc(Nc3c(C)cccc3Cl)c3cnc(CCCO)n32)c1OC` has an IC50 of 69 nM. With `c1ccc(Nc2nc3ccccc3n3cncc23)cc1` the IC50 was 890 nM. Compound `COc1ccc2c(nc(Nc3c(C)cccc3Cl)c3cnc(C)n32)c1OC` has an IC50 of 7.4 nM. For `O=[N+]([O-])c1ccccc1Nc1nc2ccccc2n2cncc12`, the IC50 was greater than 12500 nM. `Clc1cccc(CCNc2nc3ccccc3n3cncc23)c1` gave an IC50 of 4390 nM. With `Brc1ccccc1Nc1nc2ccccc2n2cnc(-c3ccccc3)c12` the IC50 was greater than 12500 nM. Compound `O=C(Nc1nc2ccccc2n2cncc12)c1c(Cl)cccc1Cl` has an IC50 of 810 nM. For `CCCCCCNc1nc2ccccc2n2cncc12`, the IC50 was greater than 12500 nM. `Cc1cccc(C)c1-c1nc2ccccc2n2cncc12` was tested, and the IC50 was greater than 12500 nM. Compound `Brc1ccccc1Sc1nc2ccccc2n2cncc12` has an IC50 greater than 12500 nM. Compound `c1ccc2c(c1)nc(NC1CCCCC1)c1cncn12` has an IC50 of 3170 nM. `Fc1ccccc1Nc1nc2ccccc2n2cncc12` was tested, and the IC50 was 390 nM.

What follows are compounds tested on T-cell (assay: Compound was tested for potency against anti-CD3/anti-CD28 induced PBL proliferation of human peripheral blood T-cells).
For `Cc1cccc(Cl)c1Nc1nc2ccccc2n2cncc12`, the IC50 was 7000 nM. With `Cc1cccc(C)c1Nc1nc2ccccc2n2cncc12` the IC50 was 3000 nM. Work on `Brc1ccccc1Nc1nc2ccccc2n2cncc12` yielded an IC50 of 17000 nM. With `COc1ccc2c(nc(Nc3c(C)cccc3Cl)c3cncn32)c1OC` the IC50 was 670 nM.
